From PubChem BioAssay (NCI) come the findings set out here.

Some test systems named below: 786-0 renal; CAKI-1 renal; DU-145 prostate; HCC-2998 colon; HOP-92 NSCLC; HS 578T breast; MOLT-4 leukemia; PC-3 prostate; SK-MEL-2 melanoma; SK-OV-3 ovarian.
What all share (assay): NCI-60 cell line screen, 48 h

Molecules are shown by their SMILES.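 All cell lines were grown in 96-well plates and treated with compound for 48 hours. At the GI50, growth is halved. TGI is the concentration that stops growth completely.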

For `COC(=O)CCC1=C(C)c2cc3[n-]c(cc4nc(cc5[n-]c(cc1n2)c(CCC(=O)OC)c5C)C=C4C)cc3C.[Cd+2]`, the GI50 in the test on 786-0 renal is 11.3 µM; with CAKI-1 renal it was 12.4 µM; in the test with DU-145 prostate, 4.5 µM; in the test with HCC-2998 colon, 22.2 µM; in the test with HOP-92 NSCLC, 16.7 µM; with HS 578T breast it was 5.73 µM. The GI50 was 5.08 µM with MOLT-4 leukemia, 4.68 µM with PC-3 prostate, 5.37 µM in the test on SK-MEL-2 melanoma and 7.4 µM in the test on SK-OV-3 ovarian. Also, the TGI in the test with 786-0 renal is 39.3 µM; in the test on CAKI-1 renal, 38.1 µM; with DU-145 prostate, 10.4 µM; with HCC-2998 colon, > 68.1 µM; in the test on HOP-92 NSCLC, 40 µM; with HS 578T breast it was > 100 µM. Further, the TGI was > 63.6 µM in the test on MOLT-4 leukemia, 29.3 µM with PC-3 prostate, 19.1 µM in the test with SK-MEL-2 melanoma and 27.7 µM in the test with SK-OV-3 ovarian.

Take `COc1ccc2c(c1)OC13Oc4cc(OC)ccc4C=C1CCCC3=C2`: the GI50 was > 100 µM in the test on 786-0 renal; > 100 µM in the test with DU-145 prostate; > 100 µM in the test with HCC-2998 colon; 4.46 µM in the test on HOP-92 NSCLC; > 100 µM with HS 578T breast; 5.81 µM in the test on MOLT-4 leukemia. The GI50 in the test on PC-3 prostate, in the test on SK-MEL-2 melanoma and in the test on SK-OV-3 ovarian was > 100 µM throughout. Further, the TGI in the test on 786-0 renal, in the test with DU-145 prostate, with HCC-2998 colon, in the test with HOP-92 NSCLC, with HS 578T breast and in the test with MOLT-4 leukemia was > 100 µM in each case. In addition, the TGI in the test on PC-3 prostate, in the test with SK-MEL-2 melanoma and with SK-OV-3 ovarian was > 100 µM each time.

As to `CC#CC(=O)N1CCC[C@H]1c1nc(-c2ccc(C(=O)Nc3ccccn3)cc2)c2c(N)nccn12`, the GI50 in the test with 786-0 renal was > 100 µM; with DU-145 prostate, 71 µM; in the test with HCC-2998 colon, > 100 µM; in the test with HOP-92 NSCLC, 25.1 µM; in the test with HS 578T breast, > 72.5 µM; with MOLT-4 leukemia it was 44.3 µM. The GI50 was > 84.8 µM with PC-3 prostate, > 88.4 µM in the test on SK-MEL-2 melanoma and 2.25 µM with SK-OV-3 ovarian. The TGI in the test with 786-0 renal, with DU-145 prostate, with HCC-2998 colon, in the test with HOP-92 NSCLC, in the test with HS 578T breast and in the test on MOLT-4 leukemia was > 100 µM in each case. In addition, the TGI in the test with PC-3 prostate, in the test on SK-MEL-2 melanoma and in the test with SK-OV-3 ovarian was > 100 µM in each case.

For the compound `Cn1c(=O)c2[nH]c(COc3ccc(C(C)(C)C)cc3)nc2n(C)c1=O`, the GI50 is 19.5 µM in the test with 786-0 renal; 12 µM in the test with CAKI-1 renal; 17.7 µM with DU-145 prostate; 16.8 µM in the test with HCC-2998 colon; 0.428 µM in the test with HOP-92 NSCLC; 20.2 µM with HS 578T breast. Also, the GI50 was 3.94 µM with MOLT-4 leukemia, 6.11 µM in the test on PC-3 prostate and 51.6 µM in the test with SK-OV-3 ovarian. Moreover, the TGI in the test with 786-0 renal was > 100 µM; in the test on CAKI-1 renal, > 100 µM; in the test on DU-145 prostate it was > 100 µM; with HCC-2998 colon, > 100 µM; in the test with HOP-92 NSCLC, 30.6 µM; in the test with HS 578T breast, > 100 µM. Besides, the TGI with MOLT-4 leukemia is 31.2 µM; in the test on PC-3 prostate, 53.3 µM; with SK-OV-3 ovarian it was > 100 µM.

`CCNCCNc1cc(-c2ccc(F)cc2)c(C#N)c2nc3ccccc3n12`: the GI50 with 786-0 renal is 1.77 µM; with CAKI-1 renal it was 4 µM; with DU-145 prostate it was 4.01 µM; in the test on HCC-2998 colon it was 3.83 µM; in the test on HOP-92 NSCLC, 2.82 µM; in the test on HS 578T breast, 3.15 µM. For the same compound, the GI50 was 6.98 µM with PC-3 prostate, 14.2 µM in the test with SK-MEL-2 melanoma and 13.5 µM in the test on SK-OV-3 ovarian. The TGI with 786-0 renal was 3.45 µM; in the test with CAKI-1 renal, 15.4 µM; in the test with DU-145 prostate it was 14.9 µM; in the test with HCC-2998 colon, 14.2 µM; in the test with HOP-92 NSCLC, 8.12 µM; with HS 578T breast, 12.5 µM. The results for the TGI with PC-3 prostate, in the test with SK-MEL-2 melanoma and in the test on SK-OV-3 ovarian were 19.5 µM, 28.3 µM and 26.4 µM, respectively.

Consider `Cn1ccnc1C(=O)/C=C/c1ccc(C(=O)Nc2nc3ccccc3[nH]2)cc1`, for which the GI50 with 786-0 renal was 4.44 µM; in the test with CAKI-1 renal, 1.63 µM; with DU-145 prostate, 0.92 µM; with HCC-2998 colon, 10.3 µM; with HOP-92 NSCLC, 6.28 µM; in the test with HS 578T breast, 5.99 µM. The GI50 in the test with MOLT-4 leukemia is 7.26 µM; with PC-3 prostate, 3.78 µM; in the test with SK-MEL-2 melanoma, > 25 µM. The TGI was > 25 µM in the test on 786-0 renal; > 25 µM in the test on CAKI-1 renal; 4.63 µM in the test on DU-145 prostate; > 25 µM with HCC-2998 colon; > 25 µM in the test with HOP-92 NSCLC; > 25 µM in the test with HS 578T breast. In addition, the TGI in the test on MOLT-4 leukemia, in the test with PC-3 prostate and in the test with SK-MEL-2 melanoma was > 25 µM each time.

As for `O=C(/C=C/c1cccc(Cl)c1)c1ccc(Cl)cc1Cl`, the GI50 in the test with 786-0 renal was 12.9 µM; in the test on CAKI-1 renal, 8.94 µM; in the test with DU-145 prostate, 9.59 µM; in the test on HCC-2998 colon, 1.14 µM; in the test with HOP-92 NSCLC, 6.17 µM; in the test on HS 578T breast it was 13.2 µM. The GI50 in the test with PC-3 prostate is 15.2 µM; in the test on SK-MEL-2 melanoma, 11.8 µM; in the test with SK-OV-3 ovarian it was 9.91 µM. Further, the TGI in the test on 786-0 renal was 27.6 µM; in the test on CAKI-1 renal, 18.2 µM; in the test with DU-145 prostate it was 23 µM; in the test with HCC-2998 colon, 2.52 µM; in the test with HOP-92 NSCLC it was 16.2 µM; in the test on HS 578T breast, 40.1 µM. Further, the results for the TGI with PC-3 prostate, in the test on SK-MEL-2 melanoma and in the test with SK-OV-3 ovarian were > 50 µM, 33 µM and 21.7 µM, respectively.

Take `Fc1ccc(-c2ncn(C3CCNCC3)c2-c2ccnc(Oc3cccc(F)c3)n2)cc1`: the GI50 with 786-0 renal was > 23.5 µM; with CAKI-1 renal, 17.9 µM; in the test with DU-145 prostate it was > 21.3 µM; in the test with HCC-2998 colon, 7.14 µM; with HS 578T breast, > 12 µM; with MOLT-4 leukemia, 12.7 µM. For the same compound, the figures for the GI50 with PC-3 prostate, in the test on SK-MEL-2 melanoma and in the test on SK-OV-3 ovarian were 16.5 µM, > 25 µM and > 22.1 µM, respectively. The TGI in the test with 786-0 renal is > 25 µM; in the test on CAKI-1 renal it was > 25 µM; with DU-145 prostate, > 25 µM; in the test with HCC-2998 colon, > 25 µM; in the test on HS 578T breast, 24.8 µM; in the test on MOLT-4 leukemia, > 25 µM. Further, the TGI in the test on PC-3 prostate, with SK-MEL-2 melanoma and in the test on SK-OV-3 ovarian was > 25 µM in each case.
